# Measurements from patent publication US7795257B2, “Organic compounds” (Novartis AG, priority 2005, dated 2010).
# pEC50: −log10 of the molar value. Counter-ions that a name gives are not always drawn.
# Biological target: T1, recombinant GST-GK (Homo sapiens, UniProt P35557)
# T1 sequence (P35557 1-465): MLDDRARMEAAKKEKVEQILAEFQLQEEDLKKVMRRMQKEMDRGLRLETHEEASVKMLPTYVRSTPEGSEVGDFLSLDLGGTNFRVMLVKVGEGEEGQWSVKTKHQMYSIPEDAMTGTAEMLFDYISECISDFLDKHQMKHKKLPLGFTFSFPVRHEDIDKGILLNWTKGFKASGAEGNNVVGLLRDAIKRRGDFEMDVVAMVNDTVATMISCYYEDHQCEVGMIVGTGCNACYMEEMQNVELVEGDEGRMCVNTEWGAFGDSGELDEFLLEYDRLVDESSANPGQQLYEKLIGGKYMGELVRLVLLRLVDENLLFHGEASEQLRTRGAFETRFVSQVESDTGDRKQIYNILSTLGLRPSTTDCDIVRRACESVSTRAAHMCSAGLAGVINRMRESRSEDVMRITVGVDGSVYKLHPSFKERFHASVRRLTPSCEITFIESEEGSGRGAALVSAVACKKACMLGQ
# Test: primary enzyme assay: glucokinase activation in vitro (thio-NADH coupled assay)
# Format: biochemical
# Settings: concentration of compound that produces a 50% increase in the activity of GK vs DMSO control; 10 mM glucose, 25° C.
# Source text: For example, the glucokinase activation in vitro may be determined by measuring the activation of recombinant GST-GK by a compound of the present invention in the absence or the presence of GKRP, a 68,000 Da protein inhibitor of GK. In these assays, formation of glucose-6-phosphate is coupled directly to the formation of thio-NADH. GST-GK catalyzes the reaction of glucose and Mg-ATP to produce glucose-6-phosphate and ADP. Glucose-6-phosphate dehydrogenase (G6PDH) reduces thionicotinamide (thio-NAD) to thio-NADH. The assay measures the formation of thio-NADH at […].
# The basic GK assay components are as follows: 25 mM HEPES (pH 7.1), 25 mM KCl, 2.5 mM MgCl2, 1 mM ATP (Sigma A-5394), 1 mM DTT, 1 mM thio-NAD (Sigma T-7375), 80 units/mL G6PDH (Sigma G-5885), 10 mM glucose and 110 nM GST-GK. For assessing reversal of GK inhibition by GKRP, 20 μM Fructose-6-phosphate (F-6-P) and 370 nM recombinant GKRP are added to these assay components. Fructose-1-phosphate (F-1-P) at 1 μM is used as a control in the GK/GKRP assay. F-1-P reverses inhibition of GST-GK by GKRP.
# The assay is done in standard, 96-well, round-bottom plates (Corning) and the total assay volume is 25 μL. Test compounds are serially diluted into 100% DMSO and 0.5 μL of diluted compound in 100% DMSO is added to the assay plate. Assay reagents (24.5 μL) are added using a Zymark robotic platform. Buffer, containing HEPES, MgCl2, KCl, thio-NAD, G6PDH, glucose and GST-GK, are added (5 μL) using the Zymark 8-channel hand pipet. For the GK/GKRP assay, GKRP and F-6-P are also included. The reaction is then initiated by adding 19.5 μL of buffer containing HEPES, MgCl2, KCl, DTT and ATP using the Zymark Reagent Addition Station/Reagent Addition Module. The plates are read kinetically over 10 min at 25° C. using a SpectraMax Plus microplate spectrophotometer (Molecular Devices, Sunnyvale, Calif.) to monitor the increase in optical density at 405 nm. The GK activity in wells containing test compounds is compared with activity in DMSO control wells. The concentration of compound that produces a 50% increase in the activity of GK is calculated and expressed as EC50.
row,SMILES,pEC50
1,"COCCN(C)C(=O)c1ccc2nc(NC(=O)[C@H](CC3CCCC3)c3ccc(S(=O)(=O)N4CCN(C)CC4)cc3)sc2n1 [Example 4-52, 2-{(R)-3-Cyclopentyl-2-[4-(4-methyl-piperazine-1-sulfonyl)-phenyl]-propionylamino}-thiazolo[5,4-b]pyridine-5-carboxylic acid (2-methoxy-ethyl)-methyl-amide]",5.68
2,"COc1ccc2nc(NC(=O)C(CC3CCCC3)c3ccc(S(=O)(=O)N4CCC(C(=O)O)CC4)cc3)sc2n1 (stereo not shown) [Example 3, 1-{4-[2-Cyclopentyl-1-(5-methoxy-thiazolo[5,4-b]pyridin-2-ylcarbamoyl)-ethyl]-benzenesulfonyl}-piperidine-4-carboxylic acid]",5.15
3,"CN1CCN(S(=O)(=O)c2ccc(C(CC3CCCC3)C(=O)Nc3ccc(C(=O)O)cn3)cc2)CC1 (stereo not shown) [Example 4-23, 6-{3-Cyclopentyl-2-[4-(4-methyl-piperazine-1-sulfonyl)-phenyl]-propionylamino}-nicotinic acid]",5.85
4,"CN1CCN(S(=O)(=O)c2ccc(C(CC3CCCC3)C(=O)Nc3nccc4ccccc34)cc2)CC1 (stereo not shown) [Example 1, 3-Cyclopentyl-N-isoquinolin-1-yl-2-[4-(4-methyl-piperazine-1-sulfonyl)-phenyl]-propionamide hydrochloride]",4.30
5,"COc1ccc2nc(NC(=O)C(CC3CCCC3)c3ccc(S(=O)(=O)N4CCNCC4C(=O)O)cc3)sc2n1 (stereo not shown) [Example 4-94, 1-{4-[2-Cyclopentyl-1-(5-methoxy-thiazolo[5,4-b]pyridin-2-ylcarbamoyl)-ethyl]-benzenesulfonyl}-piperazine-2-carboxylic acid]",5.03

# Stronger by pEC50, values ahead:
row,pEC50,SMILES
1,5.96,"CN1CCN(S(=O)(=O)c2ccc(C(CC3CCCC3)C(=O)Nc3nccc4ccccc34)cc2)CC1 (stereo not shown) [Example 4-1, 3-Cyclopentyl-N-isoquinolin-1-yl-2-[4-(4-methyl-piperazine-1-sulfonyl)-phenyl]-propionamide]"
2,6.41,"CN1CCN(S(=O)(=O)c2ccc(C(CC3CCCC3)C(=O)Nc3nc4ccc(Br)nc4s3)cc2)CC1 (stereo not shown) [Example 4-22, N-(5-Bromo-thiazolo[5,4-b]pyridin-2-yl)-3-cyclopentyl-2-[4-(4-methyl-piperazine-1-sulfonyl)-phenyl]-propionamide]"
3,6.59,"CN1CCN(S(=O)(=O)c2ccc(C(CC3CCCC3)C(=O)Nc3nc4ccc(-c5ccccc5)nc4s3)cc2)CC1 (stereo not shown) [Example 4-44, 3-Cyclopentyl-2-[4-(4-methyl-piperazine-1-sulfonyl)-phenyl]-N-(5-phenyl-thiazolo[5,4-b]pyridin-2-yl)-propionamide]"
4,7.02,"CCN(CC)S(=O)(=O)c1ccc(C(CC2CCCC2)C(=O)Nc2nc3c(s2)CN(C(=O)OC(C)(C)C)CC3)cc1 (stereo not shown) [Example 4-8, 2-[3-Cyclopentyl-2-(4-diethylsulfamoyl-phenyl)-propionylamino]-6,7-dihydro-4H-thiazolo[5,4-c]pyridine-5-carboxylic acid tert-butyl ester]"
5,7.22,"CCN(CC)S(=O)(=O)c1ccc(C(CC2CCCC2)C(=O)Nc2nccs2)cc1 (stereo not shown) [Example 4-15, 3-Cyclopentyl-2-(4-diethylsulfamoyl-phenyl)-N-thiazol-2-yl-propionamide]"
